From publication PMC10726354, “Design, Synthesis, and Biological Evaluation of Small-Molecule-Based Radioligands with Improved Pharmacokinetic Properties for Imaging of Programmed Death Ligand 1” (Journal of Medicinal Chemistry, 2023)
Values joined by “and” are separate entries in the source; they are usually repeats but may differ in a detail not shown here. Equal values may be shown once.

Experiments:
PD-L1 = biological target: T1, PD-L1 (Homo sapiens, UniProt Q9NZQ7); test: Real-time radioligand binding (LigandTracer) on PC3 PD-L1 cells; conditions: for fold change of real-time binding affinity in presence vs absence of BSA: in either direction; for Kd: real-time binding
T1 construct: expressed in transfected cells; host or cells: PC3 cells (human prostate carcinoma), stably transduced
T1 sequence (Q9NZQ7 19-290): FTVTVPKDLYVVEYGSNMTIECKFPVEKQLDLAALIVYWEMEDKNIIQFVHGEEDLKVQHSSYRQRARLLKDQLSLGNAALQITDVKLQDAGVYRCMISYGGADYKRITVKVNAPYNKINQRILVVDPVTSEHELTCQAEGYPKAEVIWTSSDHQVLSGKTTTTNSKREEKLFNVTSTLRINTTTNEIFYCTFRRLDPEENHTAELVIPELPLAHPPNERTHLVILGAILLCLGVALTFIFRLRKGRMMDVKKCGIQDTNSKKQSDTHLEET
Experimental: Real-time radioligand binding using the ligand tracer platform was performed, similar to our previously reported tracer candidates. As we aimed at reducing the albumin binding of the herein presented compounds, we performed measurements in the presence or absence of a mouse physiological concentration of BSA (2.5 g/dL).
For real-time binding to assess kinetics (association rate constant ka and dissociation rate constant kd) and dissociation constant (KD), LigandTracer (Yellow, Ridgeview Instruments AB, Sweden) was employed. Approximately 1.2 × 10^6 cells (in 3 mL medium) were seeded to one side of a Petri dish (Nunc) 1 day prior to experiments as described before.[45] Binding was then performed at room temperature (using CO2-independent medium, Gibco #18045088, Thermo Fisher Germany) with or without BSA (2.5%). First, association was determined by incubation with two concentrations (10 and 40 nM, 90 min each) of the ^64Cu-labeled PD-L1 ligands. Dissociation was then assessed by replacement with fresh medium for at least 2 h. Data were acquired in decay-corrected counts per second (CPS), and binding data were then evaluated using TraceDrawer (1.9.2, Ridgeview Instruments AB, Sweden). Traces were inspected for spikes and irregularities and then normalized to their own baseline (=0%) and highest value (=100%). Data were then fitted using a one-to-one interaction, accounting for the bulk effect.

[1] = tested on: PC3 PD-L1-overexpressing tumor; test: Small-animal PET, uptake in PD-L1-overexpressing tumor; conditions: for SUVmax PC3 PD-L1 overexpressing tumor: tracer only; for SUVmax PC3 PD-L1 overexpressing tumor +block: blocker i.v. before tracer: Cu-1 100 nmol 1, Cu-2 100 nmol 2, Cu-3 1000 nmol 4, Cu-4 500 nmol 4, Cu-6 250 nmol 1 (~5 min prior), Cu-5 100 nmol 5 (~30 min prior)
Experimental: Changes are reported as % change of the SUVmax of the PD-L1 expressing over the respective value of the mock tumor. Similarly, the effect of blocking is reported as % change of the SUVmax of the animal injected with cold compound over that of the animal that received tracer only.
Animal experiments were performed in accordance with the guidelines of the German Regulations for Animal Welfare, approved by the Saxonian Ethical Committee for Animal Experiments (reference number DD24.1-5131/449/49). Male athymic NMRI-nude mice (Rj: NMRI-Foxn1^nu/nu, Janvier Laboratories, Le Genest-Saint-Isle, France) between 8 and 22 weeks of age were used. Under general anesthesia, [∼10% desflurane (Baxter, Deerfield, IL, USA) in 30 vol % oxygen + air] and warming, the animals were subcutaneously injected with 3–5 × 10^6 PC3-PD-L1 and PC3-mock cells [in 50 μL PBS +50 μL Matrigel (Corning, Glendale, USA)] into the right and left thigh, respectively. Tumor growth was monitored three times a week by caliper measurements, and mice with tumor sizes above 7 mm were included in the experiments.
For PET studies, general anesthesia was induced as described above. PET and X-ray computed tomography (CT) were performed in a dedicated small animal nanoScan PET/CT scanner, with four animals imaged simultaneously (Mediso, Budapest, Hungary). CT images were employed for attenuation correction and anatomical referencing. Animals received three individual scans corresponding to 0–2 h (dynamic) and 4.5 and 24 h (static) postinjection.
PD-L1 radiotracer candidates (in 300 μL sterile 0.9% NaCl/HEPES buffer, pH 6–7, between 7 and 12 MBq, molar activities > 12 GBq/μmol) were delivered over 30 s i.v. (lateral tail vein) and PET acquisition started simultaneously. For blocking condition, a defined quantity of compound (the same unlabeled compound, one from the same series or BMS-1166) was diluted in sterile saline and injected i.v. approximately 5 min prior to the radiotracer. Animals not subjected to blocking were injected with vehicle at the same time.
Three-dimensional list mode data were binned using the 400–600 keV energy window and sorted into 36 time frames (15 × 10 s, 5 × 30 s, 5 × 60 s, 4 × 300 s, 3 × 600 s, 4 × 900 s). Time frames were reconstructed using the Tera-TomoTM 3D algorithm applying a voxel size of 0.4 mm and corrections for decay, scatter, and attenuation.
Three-dimensional volumes of interest were delineated applying fixed thresholding at 35% of the measured maximum intensity. Standardized uptake values (SUV = [MBq detected activity/mL tissue]/[MBq injected activity/g body weight], […]) were determined in selected volumes of interest, among these PD-L1 and mock tumors.
14. In vivo: PET- SUV data
Standardized uptake values (SUVmax)
Supplementary table 1: In vivo standardized uptake values (SUVmax ± standard deviation) of 64Cu-labeled third series compounds [64Cu]Cu-1-6 at 1.5 (1–2), 4.5 (4–5) and 24.5 (24–25) hours
post injection (p.i.). Compounds used for blocking are described for each tracer and were intravenously injected in sterile saline at stated time before the radiotracer. Animals designated for
tracer-only received matched type and volume of vehicle at the same time.

[2] = Small-animal PET, excretion pattern; assay type: in vivo, mouse; conditions: PET 0–2, 4–5 and 24–25 h p.i., i.v.
Experimental: Time points of PET imaging were 0–2, 4–5, and 24–25 h post injection (p.i.).

[3] = Radiotracer production data: stability of the product to in vivo experiments; assay type: physicochemical
[4] = Proteolytic stability in human serum, radio-HPLC; assay type: in vitro ADME; conditions: 37 °C
Experimental: Potential degradation of the ^64Cu-labeled radiotracers by proteolysis was investigated by incubation in human serum at 37 °C for up to 48 h. At three different time points (1, 24, and 48 h), a sample was withdrawn, and serum proteins were precipitated. The radio-HPLC chromatograms of all ^64Cu-labeled radiotracers (Figure S111A–D, system D) show a major peak at ∼6.4–6.7 min indicating the radiotracers. After 1 h, the radiotracers [^64Cu]Cu-3–6 are 94.1, 98.3, 94.0, and 96.3% intact, respectively.
Similar to PBS stability studies, the mixture containing the radiolabeled compound was diluted 1:10 with human serum. The solution was incubated at 37 °C with shaking at 300 rpm. At each time point (1, 24, and 48 h), an aliquot was withdrawn and added to a double amount of “supersol” (water containing 20% v/v EtOH, 5% v/v 5 mM aqueous EDTA, 0.5% v/v Triton X-100, 0.1% m/v saponin, 0.05% v/v 0.5 mM aqueous o-phenanthroline) to precipitate serum proteins. The suspension was cooled on ice for 5 min and then centrifugated for 5 min at 12,000g. A small amount of the supernatant was analyzed by radio-HPLC (PerkinElmer, Massachusetts, United States system D, Supporting Information). Evaluation and graphical plotting were performed with OriginPro 9.0.

[5] = medium only (no BSA), n = 2, mean ± S.D.
[6] = medium only (no BSA), n = 2, mean ± S.D., room temperature
[7] = 1–2 h (1.5 h) p.i., blocker: Cu-3 1000 nmol 4, Cu-4 500/1000 nmol 4, Cu-5 100 nmol 5, Cu-6 250 nmol BMS-1166
[8] = 4–5 h (4.5 h) p.i., blocker: Cu-3 1000 nmol 4, Cu-4 500/1000 nmol 4, Cu-5 100 nmol 5, Cu-6 250 nmol BMS-1166

Row | Compound | fold change of real-time binding affinity in presence vs absence of BSA (PD-L1) [fold] | Bmax [normalized (%)] (PD-L1; medium + 2.5% BSA, n = 1) [%] | ka (association rate constant) (PD-L1; medium + 2.5% BSA, n = 1) [M/s] | Bmax [normalized (%)] (PD-L1; [5]) [%] | ka (association rate constant) (PD-L1; [6]) | Kd (PD-L1; medium + 2.5% BSA, n = 1) [nM] | Kd (PD-L1; [5]) | SUVmax PC3 PD-L1 overexpressing tumor ([1]; 1.5 (1–2) hours p.i.) | SUVmax PC3 PD-L1 overexpressing tumor +block ([1]; 1.5 (1–2) hours p.i.) | SUVmax PC3 PD-L1 overexpressing tumor ([1]; 4.5 (4–5) hours p.i.) | SUVmax PC3 PD-L1 overexpressing tumor +block ([1]; 4.5 (4–5) hours p.i.) | SUVmax PC3 PD-L1 overexpressing tumor ([1]; 24.5 (24–25) hours p.i.) | SUVmax PC3 PD-L1 overexpressing tumor +block ([1]; 24.5 (24–25) hours p.i.) | Stability of the product to in vivo experiments [3] [%] | intact radiotracer in human serum after 1 h [4] [%] | blocking effect: % change of SUVmax in PD-L1 tumor vs tracer-only [1, 7] | % change of SUVmax of the PD-L1 expressing tumor over the mock tumor ([1]; 1–2 h p.i.) [%] | blocking effect: % change of SUVmax in PD-L1 tumor vs tracer-only [1, 8] | other results
1 | Cc1c(COc2cc(OCc3cncc(C#N)c3)c(CN[C@@H](CS(=O)(=O)O)C(=O)NCCS(=O)(=O)O)cc2Cl)cccc1-c1cccc(OCc2cn(CCCN3CCN(C(=O)[C@H](CS(=O)(=O)O)NC(=O)CC[C@H](C(=O)O)N4CCN(CC(=O)O)CCN(CC(=O)O)CC4)CC3)nn2)c1C.[64Cu+2] [[^64Cu]Cu-1] | ≤ 2 | 76.2 | 1410 | 186 ± 40.2 | (2.85 ± 0.07) × 10^3 (M s)^−1 | 119 | 60 nM and 60.2 nM | 1–1.5 | 1.3 | 1.1 | 1.0 | 1.4 | 1.1 | > 99 |  |  |  |  | SUVmax PC3 PD-L1 overexpressing tumor ([1]; 1.5 (1–2) hours p.i., listed as [64Cu]Cu-1): 1.5; excretion / clearance pattern (PET) [2]: mixed hepatobiliary and renal clearance
2 | Cc1c(COc2cc(OCc3cncc(S(C)(=O)=O)c3)c(CN[C@@H](CS(=O)(=O)O)C(=O)NCCP(=O)(O)O)cc2Cl)cccc1-c1cccc(OCc2cn(CCCN3CCN(C(=O)[C@H](CS(=O)(=O)O)NC(=O)CC[C@H](C(=O)O)N4CCN(CC(=O)O)CCN(CC(=O)O)CC4)CC3)nn2)c1C.[64Cu+2] [[^64Cu]Cu-5] | ≤ 2 | 219 | 1130 | 446 ± 274 | (1.14 ± 0.60) × 10^3 (M s)^−1 | 100 | 110 ± 53 nM | 3.25 | 1.75 ± 0.35 | 1.75 | 1.65 ± 0.15 | 1.2 | 1.55 ± 0.05 | > 99 | 94.0 | −46% | 306 | −6% and −5% | SUVmax PC3 PD-L1 overexpressing tumor ([1]; 1.5 (1–2) hours p.i., listed as [64Cu]Cu-5): 3.25 ± 0.25; % change of SUVmax of the PD-L1 expressing tumor over the mock tumor ([1]; 4–5 h p.i.): +59%; SUVmax PC3 PD-L1 overexpressing tumor ([1]; 4.5 (4–5) hours p.i., listed as [64Cu]Cu-5): 1.75 ± 0.15; blocking effect: % change of SUVmax in PD-L1 tumor vs tracer-only ([1]; 24–25 h (24.5 h) p.i., blocker: Cu-1, Cu-2 100 nmol unlabeled compound, Cu-3 1000 nmol 4, Cu-4 500/1000 nmol 4, Cu-5 100 nmol 5, Cu-6 250 nmol BMS-1166): +29%; % change of SUVmax of the PD-L1 expressing tumor over the mock tumor ([1]; 24–25 h p.i.): +14%; SUVmax PC3 PD-L1 overexpressing tumor ([1]; 24.5 (24–25) hours p.i., listed as [64Cu]Cu-5): 1.2 ± 0.8
3 | Cc1c(COc2cc(OCc3cncc(S(C)(=O)=O)c3)c(CN[C@@H](CS(=O)(=O)O)C(=O)NCCP(=O)(O)O)cc2Cl)cccc1-c1cccc(OCc2cn(CCCN3CCN(C(=O)[C@H](CP(=O)(O)O)NC(=O)CC[C@H](C(=O)O)N4CCN(CC(=O)O)CCN(CC(=O)O)CC4)CC3)nn2)c1C.[64Cu+2] [[^64Cu]Cu-6] | ≤ 2 | 65.3 | 3590 | 107 ± 7.16 | (5.30 ± 0.52) × 10^3 (M s)^−1 | 41.4 | 22 nM and 22.2 nM | 1.83 ± 0.37 | 2.28 ± 0.46 | 1.55 ± 0.05 | 1.8 ± 0.3 | 2.2 ± 0.1 | 2.3 ± 0.4 | > 99 | 96.3 | +25% | 121 | +16% | intact radiotracer in human serum at 48 h ([4]; 48 h): 93.4%; blocking effect of BMS-1166 on SUVmax / tumor uptake ([1]; any time point, Cu-3: 750 nmol BMS-1166 intraperitoneally 60 min prior, Cu-6: 250 nmol BMS-1166 5 min before): no blocking effect
